From US5703241A, “Inhibitor of farnesyl-protein transferase” (Merck & Co., Inc., priority 1996, dated 1997) come the findings set out here.

SMILES strings stand for the structures.

Experiment [1] concerns farnesyl-protein transferase in white blood cells. Description: In vivo pharmacodynamic effects of farnesyl-protein transferase inhibitors in mammalian white blood cells. Conditions: following a single administration of the compound. The protocol:
In vivo pharmacodynamic effects of farnesyl-protein transferase inhibitors in mammalian white blood cells
The test mammal (beagle, Cynomolgus monkey, Rhesus monkey or African green monkey) is dosed by an IV, PO or suppository dose of a given concentration of drug in a suitable vehicle, such as IV:5% EtOH/citrate buffered saline, PO:50 mmol citric acid in water and suppository: 17.7% compound, 38% hydrous lactose; 44.3% PEG 8000.
Following drug dosing, the animals are bled at times t=0, 5 mins., 15 mins., 30 mins., 60 mins., 90 mins., 180 mins.(3 hours), 270 mins. (4.5 hours), 360 mins. (6 hours) and 1440 mins. (24 hours) by withdrawing 3 mL of blood into a sodium heparin vacutainer tube and placing the drawn blood immediately on ice. The vacutainer tubes are then spun at 2800 rpm in a table top centrifuge for 5 minutes at 4 degrees. Following the spin, the upper plasma layer is withdrawn from the vacutainer tube leaving an 1/8" of plasma on top of the blood pellet. The vacutainer tubes and plasma tubes are then put into dry ice for a quick freeze and once frozen, the samples are stored at -70° degrees.
For evaluation of the white blood cells, the frozen vacutainer tube is broken at the bottom utilizing a triangular metal file, and the frozen pellet of blood is removed (prior to breaking the tube it can warmed slightly in a 30° bath taking precautions not to melt the pellet). […]

Experiment [2] addresses T1, human FPTase (Homo sapiens, UniProt P49354+P49356).
T1 construct: made in house
Nature of the experiment: In vitro inhibition of human farnesyl-protein transferase ([3H]-FPP incorporation into Ras-CVIM). Conditions: 100 nM Ras-CVIM, 30 min, read-out: IC50, inhibitory activity against human FPTase. In kind it is biochemical.

Take `COc1ccccc1CN(CC(=O)N[C@@H](CCSC)C(=O)OC(C)C)C[C@@H]1CCCN1C(=O)CCc1c[nH]cn1` [Example 1, N-[1-(1H-Imidazol-4-propionyl)pyrrolidin-2(S)-ylmethyl]-N-(2-methoxybenzyl) glycyl-methionine isopropyl ester]: the “inhibition of FPTase in white blood cells of mammals” value in experiment [1] is recorded as “sustained inhibition of FPTase in white blood cells”. The term IC50 denotes the concentration that gives 50% inhibition. `COc1ccccc1CN(CC(=O)N[C@@H](CCSC)C(=O)O)C[C@@H]1CCCN1C(=O)CCc1c[nH]cn1` [Example 2, N-[1-(1H-Imidazol-4-propionyl)pyrrolidin-2(S)-ylmethyl]-N-(2-methoxybenzyl)glycyl-methionine]: the IC50 in experiment [2] was less than 10 µM.
